Measured values published in PubChem BioAssay (NCI).
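Values below derive from 48-hour exposures of cells grown in 96-well plates, with endpoints linearly interpolated between the two concentrations bracketing the appropriate inhibition level. TGI is the concentration that stops growth completely.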

Tests used:
Test in all cases: NCI tumour cell line growth inhibition, 48 h
[1] = test system: 786-0 renal
[2] = test system: A498 renal
[3] = test system: A549 NSCLC
[4] = test system: ACHN renal
[5] = test system: BT-549 breast
[6] = test system: CAKI-1 renal
[7] = test system: CCRF-CEM leukemia
[8] = test system: COLO 205 colon
[9] = test system: DU-145 prostate
[10] = test system: EKVX NSCLC
[11] = test system: HCC-2998 colon
[12] = test system: HCT-116 colon
[13] = test system: HCT-15 colon
[14] = test system: HL-60(TB) leukemia
[15] = test system: HOP-62 NSCLC
[16] = test system: HOP-92 NSCLC
[17] = test system: HS 578T breast
[18] = test system: HT29 colon
[19] = test system: IGROV1 ovarian
[20] = test system: K-562 leukemia
[21] = test system: KM12 colon
[22] = test system: LOX IMVI melanoma
[23] = test system: M14 melanoma
[24] = test system: MALME-3M melanoma
[25] = test system: MCF7 breast
[26] = test system: MDA-MB-231 breast
[27] = test system: MDA-MB-435
[28] = test system: MDA-N
[29] = test system: MOLT-4 leukemia
[30] = test system: NCI-H226 lung
[31] = test system: NCI-H23 lung
[32] = test system: NCI-H460 lung
[33] = test system: NCI-H522 lung
[34] = test system: NCI/ADR-RES ovarian
[35] = test system: OVCAR-3 ovarian
[36] = test system: OVCAR-4 ovarian
[37] = test system: OVCAR-5 ovarian
[38] = test system: OVCAR-8 ovarian
[39] = test system: PC-3 prostate
[40] = test system: RPMI-8226 leukemia
[41] = test system: RXF 393 renal
[42] = test system: SF-268 CNS
[43] = test system: SF-295 CNS
[44] = test system: SF-539 CNS
[45] = test system: SK-MEL-2 melanoma
[46] = test system: SK-MEL-28 melanoma
[47] = test system: SK-MEL-5 melanoma
[48] = test system: SK-OV-3 ovarian
[49] = test system: SN12C renal
[50] = test system: SNB-19 CNS
[51] = test system: SNB-75 CNS
[52] = test system: SR leukemia
[53] = test system: SW-620 colon
[54] = test system: T-47D breast
[55] = test system: TK-10 renal
[56] = test system: U251 CNS
[57] = test system: UACC-257 melanoma
[58] = test system: UACC-62 melanoma
[59] = test system: UO-31 renal

Measured: TGI

CC(C)CSCC1OC(n2cnc3c(N)nccc32)C(O)C1O (stereo not drawn)
> 100 µM: all assays above

C/C=C/[C@@H](C(=O)OC)N1C(=O)c2ccccc2[C@H]1O
> 100 µM: all assays above
